What all share (assay type): in vivo
Assay [1] concerns Kochia (Kochia scoparia). Nature of the assay: Test A preemergence. As to conditions: Bassia scoparia, pre-emergence, 240 h, preemergence, read-out: Plant response rating, Kochia. In short, it runs like this: (§1)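 Greenhouse, ~10 d after spray; visual injury vs untreated controls, 0 = no effect, 100 = complete control. Preemergence: directed soil spray over planted seeds. Postemergence: plants 2–10 cm, 1–2 leaf stage. Loam/sand blend. Compound in non-phytotoxic solvent with surfactant.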

Assay [2] concerns barnyardgrass (Echinochloa crus-galli). Nature of the assay: Test A preemergence. As to conditions: Echinochloa crus-galli, pre-emergence, 240 h, preemergence, read-out: Plant response rating, Barnyardgrass. The essentials: as §1
Assay [3] concerns giant foxtail (Setaria faberii). Description: Test A preemergence. As to conditions: Setaria faberi, pre-emergence, 240 h, preemergence, read-out: Plant response rating, Foxtail, Giant. The essentials:
as §1

The subject of assay [4] is pigweed (Amaranthus retroflexus). Nature of the assay: Test A preemergence. As to conditions: Amaranthus retroflexus, pre-emergence, 240 h, preemergence, read-out: Plant response rating, Pigweed.
The subject of assay [5] is ragweed (common ragweed, Ambrosia elatior). Nature of the assay: Test A preemergence. As to conditions: Ambrosia artemisiifolia, pre-emergence, 240 h, preemergence, read-out: Plant response rating, Ragweed. The essentials:
as §1

In assay [6] the test system is ryegrass, Italian (Italian ryegrass, Lolium multiflorum). Nature of the assay: Test A preemergence. As to conditions: Lolium multiflorum, pre-emergence, 240 h, preemergence, read-out: Plant response rating, Ryegrass, Italian. The essentials:
as §1

In assay [7] the test system is Galium (catchweed bedstraw, Galium aparine). Nature of the assay: Test A postemergence. As to conditions: Galium, post-emergence, 240 h, 125 g ai/ha, postemergence; visual injury after approximately 10 d; 0 to 100 scale (0 no effect, 100 complete control); read-out: Plant response rating, Galium. In short, it runs like this: as §1
In assay [8] the test system is Kochia (Kochia scoparia). Description: Test A postemergence. As to conditions: Bassia scoparia, post-emergence, 240 h, 125 g ai/ha, postemergence; visual injury after approximately 10 d; 0 to 100 scale (0 no effect, 100 complete control); read-out: Plant response rating, Kochia. In short, it runs like this:
as §1

The subject of assay [9] is barnyardgrass (Echinochloa crus-galli). Description: Test A postemergence. As to conditions: Echinochloa crus-galli, post-emergence, 240 h, 125 g ai/ha, postemergence; visual injury after approximately 10 d; 0 to 100 scale (0 no effect, 100 complete control); read-out: Plant response rating, Barnyardgrass. The essentials: as §1
Assay [10] deals with blackgrass (Alopecurus myosuroides). Description: Test A postemergence. As to conditions: Alopecurus myosuroides, post-emergence, 240 h, 125 g ai/ha, postemergence; visual injury after approximately 10 d; 0 to 100 scale (0 no effect, 100 complete control); read-out: Plant response rating, Blackgrass. The essentials: as §1
In the next assay the test system is corn (Zea mays). Nature of the assay: Test A postemergence. As to conditions: Zea mays, post-emergence, 240 h, 125 g ai/ha, postemergence; visual injury after approximately 10 d; 0 to 100 scale (0 no effect, 100 complete control). In short, it runs like this:
as §1

Assay [11] deals with giant foxtail (Setaria faberii). Nature of the assay: Test A postemergence. As to conditions: Setaria faberi, post-emergence, 240 h, 125 g ai/ha, postemergence; visual injury after approximately 10 d; 0 to 100 scale (0 no effect, 100 complete control); read-out: Plant response rating, Foxtail, Giant. In short, it runs like this:
as §1

Assay [12] deals with pigweed (Amaranthus retroflexus). Nature of the assay: Test A postemergence. As to conditions: Amaranthus retroflexus, post-emergence, 240 h, 125 g ai/ha, postemergence; visual injury after approximately 10 d; 0 to 100 scale (0 no effect, 100 complete control); read-out: Plant response rating, Pigweed. In short, it runs like this:
as §1

Assay [13] deals with ragweed (common ragweed, Ambrosia elatior). Description: Test A postemergence. As to conditions: Ambrosia artemisiifolia, post-emergence, 240 h, 125 g ai/ha, postemergence; visual injury after approximately 10 d; 0 to 100 scale (0 no effect, 100 complete control); read-out: Plant response rating, Ragweed. The essentials: as §1
For assay [14], the system named is ryegrass, Italian (Italian ryegrass, Lolium multiflorum). Nature of the assay: Test A postemergence. As to conditions: Lolium multiflorum, post-emergence, 240 h, 125 g ai/ha, postemergence; visual injury after approximately 10 d; 0 to 100 scale (0 no effect, 100 complete control); read-out: Plant response rating, Ryegrass, Italian. The essentials:
as §1

Assay [15] relates to wheat (Triticum aestivum). Description: Test A postemergence. As to conditions: Triticum aestivum, post-emergence, 240 h, 125 g ai/ha, postemergence; visual injury after approximately 10 d; 0 to 100 scale (0 no effect, 100 complete control); read-out: Plant response rating, Wheat. The essentials: as §1
Setting [16] is: 125 g ai/ha, visual rating after approx. 10 d, 0 to 100 scale where 0 is no effect and 100 is complete control.
The mark [17] stands for this setting: 500 g ai/ha, 0 to 100 scale, 0 = no effect, 100 = complete control.

Consider `CCc1cc(CC)cc([C@H]2CN(C)C(=O)[C@@H]2C(=O)Nc2ccccc2C(F)(F)F)c1` [Compound 737], for which the pest or weed control at 125 g/ha stood at 40% in the assay with Kochia (Kochia scoparia) [1] (setting [16]); 70% in assay [2] (setting [16]); 90% in assay [3] (setting [16]); 0% in assay [4] (setting [16]); 0% in [5] (setting [16]); 40% in assay [6] (setting [16]). The pest or weed control at 125 g/ha in assay [7] is 30%; in the assay with Kochia (Kochia scoparia) [8], 0%; in [9] it was 40%; in assay [10], 30%; in assay [11] it was 70%; in [12], 20%. In addition, the pest or weed control at 125 g/ha is 0% in assay [13] and 50% in assay [14]. The pest or weed control at 500 g/ha was determined as 50% with Kochia (Kochia scoparia) [1] (setting [17]); 80% in assay [2] (setting [17]); 90% in [3] (setting [17]); 0% in assay [4] (setting [17]); 0% in assay [5] (setting [17]); 70% in assay [6] (setting [17]). For the same compound, the Corn plant response rating (crop injury, 0 = no effect, 100 = complete kill) at 125 g/ha with corn (Zea mays) was 40%. Also, the plant injury at 125 g/ha in [15] was found to be 40%.

For the origin of these results see patent US12077503B2, “Substituted cyclic amides and their use as herbicides” (FMC CORPORATION, priority 2015, dated 2024).
